The values below come from US12414983B2, “CD200AR ligands for cancer immunotherapy” (REGENTS OF THE UNIVERSITY OF MINNESOTA, priority 2019, dated 2025).

In one assay the test system is T-lymphocytes. Put plainly: P4A10 priming prior to antigen presentation, CD200R1 expression. It counts as cell-based. Conditions: not observed in mock-treated cells, FIG. 7d. The source says: The efficacy of the P4A10+autologous tumor lysate strategy in this context creates an interesting conundrum. The T-cells that respond to APC presentation following stimulation express the inhibitory CD200R129. The immune-stimulatory effects of these primed T-cells, therefore, are expected to be blunted upon entry into a glioblastoma microenvironment that is replete with soluble and tumor-expressed CD200. […] Such suppression was not observed in mock-treated cells. Similar downregulation of PD-1 was observed on APCs (p=0.005, FIG. 7c).

In assay [1] the test system is CD14+ cells. Nature of the assay: Dendritic cell maturation: phenotyping for CD80, CD86, HLA-DR. It counts as cell-based, human. Conditions: peptide alone compared with GM-CSF+IL4, p<0.0001. On the procedure:
FIGS. 4A-4D. Targeting CD200 activation receptors enhances dendritic cell maturation. (FIGS. 4A, 4B) CD14 purified cells were pulsed with (FIG. 4A) GM-CSF+IL4 or equal molar ratios of peptides P1A8, P2A0, or P4A10 or (FIG. 4B) GM-CSF+IL4 plus equal molar ratios of peptides P1A8, P2A0, or P4A10 and incubated for 48 h. Cells were harvested and phenotyped for CD80, CD86, and HLA-DR. (FIG. 4C) Immature dendritic cells from donors with or without CMV were pulsed with the CMV antigen pp65+/−equal molar ratios of peptides P1A8, P2A0, or P4A10. Cells were washed, and autologous T-cells were added back and incubated for a further 48 h. Supernatants were analyzed for IFNγ production. (FIG. 4D) Immature dendritic cells were pulsed with the CMV antigen pp65+/−P4A10. After the cells were washed, autologous T-cells were added back and incubated for a further 48 h. Supernatants were analyzed for IFNγ, IL-6, TNFα and RANTES content. Error bars represent standard deviation (n=3 healthy donors/group, *P<0.05, **P<0.005, ***P<0.0005 by t-test). The data represent three separate healthy donors. Black bars represent CMV-negative donors.
Targeting CD200 activation receptors enhances dendritic cell maturation. TNF-regulated cytokines (Table 1) have been implicated in dendritic cell maturation. […] To substantiate this, CD14^+ cells were isolated from healthy human donors and pulsed with GM-CSF+IL4, P1A8, P2A0, or P4A10 27. Cells pulsed with P1A8, P2A0, and P4A10 expressed higher levels of the co-stimulatory molecules CD80, CD86, and HLA-DR than cells treated with GM-CSF+IL4 (p<0.0001; FIG. 4a). Moreover, we observed synergistic upregulation of CD80/86 and HLA-DR when CD14^+ cells were incubated with GM-CSF+IL4 and each of the peptides (p<0.0001) (FIG. 4b).

The test system of assay [2] is CD14+ cells. Nature of the assay: RNAseq / NanoString gene expression analysis of pulsed CD14+ cells. The assay is classed as cell-based, human. The conditions noted are these: for mRNA expression of TNF-regulated cytokines: NanoString platform, FIG. 3b; for mRNA expression of cytokines released in response to TNF signaling: RNAseq, CD14+ cells. The source says: Nanostring gene expression analysis: Total RNA from CD14^+ cells was sent to New Zealand Genomics Limited (Dunedin, New Zealand) to measure the expression of genes that are differentially expressed during inflammation (nCounter GX, NanoString Technologies, Seattle, WA, USA). Briefly, total RNA was extracted from CD14^+ cells (MagJET RNA kit, Thermo Fisher Scientific, Waltham, MA) using the protocol adapted for tissue (KingFisher Duo machine, Thermo Fisher Scientific, Waltham, MA). RNA samples were then quantified (Qubit® 2.0 fluorometer, Thermo Fisher Scientific) and subjected to RNA integrity analysis (2100 Bioanalyzer, Agilent Technologies, Santa Clara, CA). Probes for the genes encoding CD44 (NM_001001392.1); NANOG (NM_024865.2); OCT4 (NM_002701.4); STAT3 (NM_139276.2); and the housekeeping genes glucuronidase beta (NM_000181.1), clathrin heavy chain (NM 4859.2), and hypoxanthine phosphoribosyltransferase 1 (NM_000194.1) were designed and manufactured by NanoString Technologies.
Expression data obtained with NanoString GX were analyzed by using nSolver Analysis Software 3.0 (nanostring.com/products/nSolver) with default settings, and normalized to housekeeping genes. nSolver was used to perform cluster analysis and to generate heat maps by using Java Treeview Version 1.1.6r4. Pathway analysis was performed by using the PathCards Pathway Unification Database (pathcards.genecards.org). Student's t-tests were used to determine significant differences (p<0.05).

The next assay has as its system Human CD14+ cells. Put plainly: Cytokine measurements in CD14+ cells pulsed with CD200AR-L peptide. It counts as cell-based. The conditions noted are these: for secretion of inflammatory cytokines from CD14+ cells: selection among 61 alanine-substituted peptides; for IL-1β in supernatant / TNFα in supernatant: CD14+ cells pulsed with peptide, 48 h, compared with non-pulsed controls. The procedure: Cytokine measurements. Human CD14^+ cells (5×10^5) were isolated from peripheral blood mononuclear cells (PBMCs) using anti-CD14 beads (BD Biosciences, San Jose, CA), typically yielding ≥70% recovery and ≥90% purity. Cells were pulsed with 2 μM CD200AR-L peptide and incubated for 48 h, after which the supernatants were analyzed by bead array for cytokine production (BD Biosciences, San Jose, CA).

The test system of assay [3] is immature dendritic cells (iDCs) and autologous T-cells. Put plainly: CMV assay: iDCs pulsed with pp65 +/- peptide, then co-incubated with T-cells. It counts as cell-based, human. The conditions noted are these: for antigen-specific response, production of IFNγ: pp65+CD200AR-L peptide compared with pp65 alone. On the procedure: Dendritic cell differentiation. Cytomegalovirus (CMV)-positive HLA-A2^+ lymphocyte packs were obtained from the American Red Cross, and CD14^+ cells were purified. Approximately 1×10^8 CD14^+ cells were cultured in polystyrene tissue-culture flasks at 37° C. in 5% CO2. GM-CSF (25 ng/mL) and IL-4 (40 ng/mL) were both added on days 3 and 5 to derive immature dendritic cells (iDCs).
CMV assay. iDCs (5×10^5) were pulsed with 10 μg of CMV antigen peptide pp65495-503 (NLVPMVATV) and cultured as described above. The iDCs were then washed three times, and 5×10^5 CD8^+ T-cells from CMV-positive donors were co-incubated with the pulsed iDCs. CMV-negative PBMCs were used as a negative control. Supernatants were collected after 48 h of incubation and analyzed for IFNγ production by cytometric bead array (BD Biosciences).
To assess the effects of P1A8, P2A0, and P4A10 on the antigen-specific response, we measured IFNγ release in the following assay. iDCs were pulsed with the CMV antigen pp65 with and without an equimolar amount of P1A8, P2A0, or P4A10. Autologous T-cells were then added and incubated with the iDCs for 48 h, after which IFNγ production was measured in the supernatants. Exposure to pp65 increased T-cell IFNγ production approximately 4-fold (FIG. 4c). Co-treatment of iDCs with pp65 and P1A8, P2A0, or P4A10 increased IFNγ release by an additional 2- to 3-fold over pp65 alone.

Another assay deals with Splenocytes. Put plainly: Splenocytes pulsed with CD200 or PD-L1 +/- mCD200AR-L, flow cytometry for CTLA4 and PD-L1. It counts as cell-based. Conditions: splenocytes pulsed with CD200 or PD-L1. The procedure:
FIGS. 14A-14C. […] Splenocytes were pulsed with CD200, PD-L1+/−mCD200AR-L. Cells were analyzed by flow cytometry for the (FIG. 14A) CD4^+CTLA4^+, (FIG. 14B) CD8^+CTLA4^+or (FIG. 14C) CD11b^+PD-L1^+ populations. Error bars are representative of n=2 *P<0.005, **P<0.0001.
We propose that soluble CD200 and PD-L1 inhibit T cell activation through multiple checkpoints (FIG. 10). Therefore, the effect of multiple suppressive molecules (CD200 and PD-L1) on T cell inhibition was investigated. […] In addition, following PD-L1 treatment, an upregulation of PD-L1 on CD11b and an upregulation of CTLA4 was observed on T cells. Being CTLA4 and PD-L1 propagate separate inhibitory signals, it was hypothesized that PD-L1 inhibits T cell activation through 1) direct CD200 and PD-L1 on T cells and 2) direct PD-L1 (on APCs)/PD-I (on […]) producing cytokines upregulating CTLA4, which would explain the enhanced responses seen in combination α-PD-1 and α-CTLA4 treatments. However, neither of them inhibit CD200 effect on T cells.
We next looked at the effects of CD200AR-L on T cell inhibition. […] Being CTLA4 and PD-L1 propagate separate inhibitory signals, we hypothesize that PD-L1 inhibits T cell activation through two separate mechanisms, 1) through direct PD-L1 (on APCs)/PD-I (on T cells) interactions and through cytokine production following PD-L1 binding to the PD-1 on CD11b cell, which would explain the enhanced responses seen in combination α-PD-1 and α-CTLA4 treatments.
On the technique in general: In flow cytometry, cells or beads pass a laser one at a time.

Take “CLFNTFGFGAISGTA (Ac-CLFNTFGFGAISGTA-NH2; listed as Homo sapiens) [P4A10]”: the CD200R1 expression entry with T-lymphocytes was “suppressed”. The “levels of co-stimulatory molecules CD80, CD86, and HLA-DR” value in the assay with CD14+ cells [1] is on record as “higher levels”. In addition, in the assay with CD14+ cells [2], the “mRNA expression of TNF-regulated cytokines” value is “most potently and consistently induced”; the “mRNA expression of cytokines released in response to TNF signaling” value was “notable increase”. Also, the “secretion of inflammatory cytokines from CD14+ cells” value (from here on “secretion of inflammatory cytokines”) in the assay with Human CD14+ cells is on record as “maximally stimulated”.
Consider “NITLADEGCYMCLFN (Ac-NITLADEGCYMCLFN-NH2; cysteine pairing not given here; listed as Homo sapiens) [P2A5]”, for which the “secretion of inflammatory cytokines” value in the assay with Human CD14+ cells is “maximally stimulated”.
On to “NITLEDEGCYMCLFN (Ac-NITLEDEGCYMCLFN-NH2; cysteine pairing not given here; listed as Homo sapiens) [P2A0]”, for which the “levels of co-stimulatory molecules CD80, CD86, and HLA-DR” value in the assay with CD14+ cells [1] is reported as “higher levels”. Also, in the assay on CD14+ cells [2], the “mRNA expression of TNF-regulated cytokines” value is “most potently and consistently induced”; the “mRNA expression of cytokines released in response to TNF signaling” value is recorded as “notable increase”. Moreover, the “secretion of inflammatory cytokines” value with Human CD14+ cells is on record as “maximally stimulated”.
Regarding “NITLEDEGCYMCLFN (Ac-NITLEDEGCYMCLFN-NH2; cysteine pairing not given here; listed as Homo sapiens) [P2]”, the “antigen-specific response, production of IFNγ” value (“antigen-specific response” below) in assay [3] is “significant antigen-specific response”. In the assay on Human CD14+ cells, the IL-1β in supernatant result was “statistically significant increases” and the TNFα in supernatant result is reported as “statistically significant increases”.
For “VTFSENHGVVIQPAY (Ac-VTFSENHGVVIQPAY-NH2; listed as Homo sapiens) [P3]”, the “antigen-specific response” value in assay [3] is “significant antigen-specific response”. Moreover, in the assay with Human CD14+ cells, the IL-1β in supernatant result was “statistically significant increases” and the TNFα in supernatant entry is “statistically significant increases”.
Take “NLVPMVATV [pp65, CMV antigen peptide pp65495-503, reference compound]”: the “increase of T-cell IFNγ production” value in assay [3] (exposure to pp65 alone, FIG. 4c) is “approximately 4 fold”.
For the molecule “VTFSENHGVVIAPAY (Ac-VTFSENHGVVIAPAY-NH2; listed as Homo sapiens) [P3A12]”, the “secretion of inflammatory cytokines” value with Human CD14+ cells is “maximally stimulated”.
Regarding “IVTWQKKKAVSPENM (Ac-IVTWQKKKAVSPENM-NH2; listed as Homo sapiens) [P1]”, the “antigen-specific response” value in assay [3] is listed as “significant antigen-specific response”. For the same molecule, in the assay with Human CD14+ cells, the IL-1β in supernatant entry was “statistically significant increases” and the TNFα in supernatant entry is “statistically significant increases”.
“CLFNTFGFGKISGTA (Ac-CLFNTFGFGKISGTA-NH2; listed as Homo sapiens) [P4]”: the “antigen-specific response” value in assay [3] is “significant antigen-specific response”. In addition, in the assay with Human CD14+ cells, the IL-1β in supernatant entry is given as “statistically significant increases” and the TNFα in supernatant result is “statistically significant increases”.

B1: CD200: CD200 immune checkpoint protein used to pulse splenocytes (protein, UniProt O54901 31-278, looked up)
OX-2 membrane glycoprotein: QVEVVTQDERKALHTTASLRCSLKTSQEPLIVTWQKKKAVSPENMVTYSKTHGVVIQPAYKDRINVTELGLWNSSITFWNTTLEDEGCYMCLFNTFGSQKVSGTACLTLYVQPIVHLHYNYFEDHLNITCSATARPAPAISWKGTGTGIENSTESHFHSNGTTSVTSILRVKDPKTQVGKEVICQVLYLGNVIDYKQSLDKGFWFSVPLLLSIVSLVILLVLISILLYWKRHRNQERGESSQGMQRMK
With B1, in the assay on Splenocytes, the “CTLA4 on CD4 cells” value is “upregulation” and the “CTLA4 on CD8 cells” value was “not on CD8 cells”.
